Experiments:
[1] = target: H3 (h) (Homo sapiens, UniProt Q9Y5N1); test: competitive radioligand binding assay, H3 (h) (agonist radioligand)
[2] = target: B1 (h) (Homo sapiens, UniProt P46663); test: competitive radioligand binding assay, B1 (h) (agonist radioligand)
[3] = target: T1, androgen receptors (Homo sapiens, UniProt P10275, T878A); test: cell-based; assay type: cell-based
T1 construct: host or cells: LNCaP
T1 sequence (P10275 1-920 T878A): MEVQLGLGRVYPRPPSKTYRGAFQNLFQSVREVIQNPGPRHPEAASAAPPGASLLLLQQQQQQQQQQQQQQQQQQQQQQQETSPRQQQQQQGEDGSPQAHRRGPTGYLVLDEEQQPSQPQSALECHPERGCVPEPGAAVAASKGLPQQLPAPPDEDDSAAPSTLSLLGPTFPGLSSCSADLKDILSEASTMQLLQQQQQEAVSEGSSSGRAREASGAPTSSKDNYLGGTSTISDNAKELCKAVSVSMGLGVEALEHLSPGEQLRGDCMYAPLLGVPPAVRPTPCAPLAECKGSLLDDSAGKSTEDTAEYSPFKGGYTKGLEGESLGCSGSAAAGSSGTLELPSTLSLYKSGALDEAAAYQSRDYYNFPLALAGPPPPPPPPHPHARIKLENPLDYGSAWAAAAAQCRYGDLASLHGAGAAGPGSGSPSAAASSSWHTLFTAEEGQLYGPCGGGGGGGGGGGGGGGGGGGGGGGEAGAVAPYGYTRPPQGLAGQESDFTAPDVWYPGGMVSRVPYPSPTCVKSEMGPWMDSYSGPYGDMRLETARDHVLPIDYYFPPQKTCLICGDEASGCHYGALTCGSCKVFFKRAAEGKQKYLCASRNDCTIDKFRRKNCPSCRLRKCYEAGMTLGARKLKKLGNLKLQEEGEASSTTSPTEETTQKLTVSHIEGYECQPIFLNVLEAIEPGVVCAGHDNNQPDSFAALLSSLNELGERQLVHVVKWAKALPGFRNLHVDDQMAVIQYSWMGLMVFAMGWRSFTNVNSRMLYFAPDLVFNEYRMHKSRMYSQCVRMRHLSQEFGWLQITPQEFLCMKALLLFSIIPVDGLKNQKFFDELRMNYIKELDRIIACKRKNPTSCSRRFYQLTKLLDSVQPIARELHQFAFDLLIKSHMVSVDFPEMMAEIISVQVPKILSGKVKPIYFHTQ
Procedure: The expression of PSA was measured in the culture medium 24 hours thereafter (FIG. 1). […] The LnCAP cells were cultured for a further 5 days and the number of viable cells was then calculated.
FIG. 1. Inhibition of DHT-stimulated PSA expression in LnCAP cells.
These cells are sensitive towards 5-a-dihydrotestosterone (DHT) and in the presence thereof produce cancer markers (PSA). […] Before the experiment, the cells were washed and suspended in the same medium, in which, however, a serum treated with charcoal for removal of hormone traces was used instead of calf serum. The cells (10 000 in total) were embedded into the wells of 96-well plates at 100 μl per well and left for 4 days in an incubator at 37° C. […] The cells were incubated for a further 5 days under the same conditions. Then, samples of the supracellular medium were taken and analyzed for PSA. The test was carried out according to the protocol recommended by the manufacturer of the kit for PSA measurement (Alpha Diagnostic International, USA). After wetting the wells containing PSA antibodies attached to their bottoms, 25 μl of test compounds and 100 μl of PSA antibodies pre-conjugated to horseradish peroxidase were added successively to each well. Following a 30-minute incubation at room temperature, the content of each well was removed, the wells were washed several times, and 100 μl of a peroxidase chromogenic substrate was then added to each well. […] Based on data about the dependence of DHT-related reduction of PSA synthesis on the concentration of test compounds, dose-response curves were plotted to determine IC50 values. Said values were used for calculating apparent inhibition constants (Ki) for compounds of general formula I according to Cheng-Prusoff equation. [Cheng, Y., Prusoff, W. H. “Relationship between the inhibition constant (Ki) and the concentration of inhibitor which causes 50 percent inhibition (IC50) of an enzymatic reaction”. Biochem Pharmacol.

[4] = target: H2 (h) (Homo sapiens, UniProt P25021); test: competitive radioligand binding assay, H2 (h) (antagonist radioligand)
[5] = target: EP2 (h) (Homo sapiens, UniProt P43116); test: competitive radioligand binding assay, EP2 (h) (agonist radioligand)
[6] = target: A2A (h) (Homo sapiens, UniProt P29274); test: competitive radioligand binding assay, A2A (h) (agonist radioligand)
[7] = system: AMPA; test: competitive radioligand binding assay, AMPA (agonist radioligand); conditions: 10 μM

EP2 (h), sequence (P43116 whole entry): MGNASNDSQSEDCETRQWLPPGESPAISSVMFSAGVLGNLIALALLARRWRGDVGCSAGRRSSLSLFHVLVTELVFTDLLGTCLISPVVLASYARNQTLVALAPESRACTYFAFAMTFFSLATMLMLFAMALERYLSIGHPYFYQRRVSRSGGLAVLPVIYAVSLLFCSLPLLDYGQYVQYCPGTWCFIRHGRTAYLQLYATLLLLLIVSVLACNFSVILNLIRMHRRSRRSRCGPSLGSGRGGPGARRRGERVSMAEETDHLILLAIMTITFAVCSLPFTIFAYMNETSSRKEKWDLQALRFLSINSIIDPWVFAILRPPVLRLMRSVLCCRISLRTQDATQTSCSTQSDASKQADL
H2 (h), sequence (P25021 whole entry): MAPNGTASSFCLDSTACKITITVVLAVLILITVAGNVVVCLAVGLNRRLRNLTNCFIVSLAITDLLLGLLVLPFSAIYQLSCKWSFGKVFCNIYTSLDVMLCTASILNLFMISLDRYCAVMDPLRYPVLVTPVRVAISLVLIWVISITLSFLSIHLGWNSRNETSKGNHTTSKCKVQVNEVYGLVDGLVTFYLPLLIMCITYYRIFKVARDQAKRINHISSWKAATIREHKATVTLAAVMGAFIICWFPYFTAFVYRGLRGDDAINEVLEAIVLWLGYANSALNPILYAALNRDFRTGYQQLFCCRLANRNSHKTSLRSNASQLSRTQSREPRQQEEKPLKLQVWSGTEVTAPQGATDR
H3 (h), sequence (Q9Y5N1 whole entry): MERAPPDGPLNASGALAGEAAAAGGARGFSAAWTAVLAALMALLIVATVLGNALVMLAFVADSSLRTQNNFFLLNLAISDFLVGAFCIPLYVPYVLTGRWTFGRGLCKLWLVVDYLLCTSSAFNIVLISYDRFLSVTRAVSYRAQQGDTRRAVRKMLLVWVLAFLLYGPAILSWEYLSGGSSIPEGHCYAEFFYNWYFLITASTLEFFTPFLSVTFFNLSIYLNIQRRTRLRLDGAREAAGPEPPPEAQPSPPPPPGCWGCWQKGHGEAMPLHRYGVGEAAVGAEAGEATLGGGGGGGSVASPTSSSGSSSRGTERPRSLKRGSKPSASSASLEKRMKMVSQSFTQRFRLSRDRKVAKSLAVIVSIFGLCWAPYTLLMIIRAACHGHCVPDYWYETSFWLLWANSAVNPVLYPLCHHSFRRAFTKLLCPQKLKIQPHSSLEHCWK
A2A (h), sequence (P29274 whole entry): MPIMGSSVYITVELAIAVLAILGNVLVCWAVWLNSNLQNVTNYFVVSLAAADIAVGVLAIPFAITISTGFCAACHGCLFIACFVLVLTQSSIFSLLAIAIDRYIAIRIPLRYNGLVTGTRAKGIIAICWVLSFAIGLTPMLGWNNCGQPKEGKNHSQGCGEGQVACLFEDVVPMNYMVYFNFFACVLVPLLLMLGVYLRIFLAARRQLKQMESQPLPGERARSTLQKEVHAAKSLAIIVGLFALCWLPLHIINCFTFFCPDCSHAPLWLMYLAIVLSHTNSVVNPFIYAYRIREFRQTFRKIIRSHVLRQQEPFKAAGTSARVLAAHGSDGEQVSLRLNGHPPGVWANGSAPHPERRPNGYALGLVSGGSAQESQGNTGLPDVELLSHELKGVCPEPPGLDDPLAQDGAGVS
B1 (h), sequence (P46663 whole entry): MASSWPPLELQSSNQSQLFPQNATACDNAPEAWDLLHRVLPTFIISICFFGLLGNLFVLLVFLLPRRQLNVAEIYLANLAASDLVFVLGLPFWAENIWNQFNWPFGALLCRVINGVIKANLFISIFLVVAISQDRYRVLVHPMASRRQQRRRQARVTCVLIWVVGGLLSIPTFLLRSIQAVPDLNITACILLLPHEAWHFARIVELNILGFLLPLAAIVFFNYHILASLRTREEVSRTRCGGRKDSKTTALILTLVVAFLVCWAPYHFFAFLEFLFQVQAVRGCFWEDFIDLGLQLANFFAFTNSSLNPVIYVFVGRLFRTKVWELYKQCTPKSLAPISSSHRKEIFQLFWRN

## CNC(=O)c1ccc(N2C(=S)N(c3ccc(C#N)c(C(F)(F)F)c3)C(=O)[C@]23CCOC3)cc1F [(R)-1, 4-[(R)-3-(4-cyano-3-trifluoromethyl-phenyl)-4-oxo-2-thioxo-7-oxa-1,3-diaza-spiro[4.4]non-1-yl]-2-fluoro-N-methyl-benzamide]
[1]
  inhibition at 10 µM: -13%
[2]
  inhibition at 10 µM: 0.5%
[3]
  AR antagonistic activity (in words): even greater AR antagonistic activity
  fold more efficient than III in inhibiting DHT-induced PSA expression: around 1.9 fold
  fold more efficient than Ia in inhibiting DHT-induced PSA expression: around 1.5 fold
  fold more potent than (S)-stereoisomer (S)-1: more than 10 fold
[3]; read-out: Ki, inhibition of DHT-induced PSA expression
  Ki: 20 nM
[4]
  inhibition at 10 µM: -2.6%
[5]
  inhibition at 10 µM: 0%
[6]
  inhibition at 10 µM: 8.1%
[7]
  % Inhibition: −23.0%

Source: US9073874B2, “Cyclic N,N′-diarylthioureas and N,N′-diarylureas-androgen receptor antagonists, anticancer agent, method for preparation and use thereof” (priority 2010, dated 2015)
